Holding throughout (type): cell-based
Assay [1] relates to HT-29 (monolayer culture of a human colon carcinoma). Briefly: Cytotoxic activity screening, HT-29 cells. Particulars: three days of incubation, Crystal Violet; for IC50: Homo sapiens, HT-29, 72 h, approximate IC50. Here is the method: (§1) Cell Cultures. Cells were maintained in logarithmic phase of growth in Eagle's Minimum Essential Medium, with Earle's Balanced Salts, with 2.0 mM L-glutamine, with non-essential amino acids, without sodium bicarbonate (EMEM/neaa); supplemented with 10% Fetal Calf Serum (FCS), 10^−2 M sodium bicarbonate and 0.1 g/l penicillin-G+streptomycin sulfate.
(§2) A separate set of cultures without drug was seeded as control growth to ensure that cells remained in exponential phase of growth. All determinations were carried out in duplicate. After three days of incubation at 37° C., 10% CO2 in a 98% humid atmosphere, the wells were stained with 0.1% Crystal Violet. An approximately IC50 was determined by comparing the growth in wells with drug to the growth in wells control.

For assay [2], the system named is P-388 (suspension culture of a lymphoid neoplasm from DBA/2 mouse). Briefly: Cytotoxic activity screening, P-388 cells. To be noted: three days of incubation, approximate IC50 vs control growth; for IC50: Mus musculus, P388, 72 h. Here is the method: as §1
(§3) A simple screening procedure has been carried out to determine and compare the antitumour activity of these compounds, using an adapted form of the method described by Bergeron et al (1984). The tumour cell line employed have been P-388 (suspension culture of a lymphoid neoplasm from DBA/2 mouse), A-549 (monolayer culture of a human lung carcinoma), HT-29 (monolayer culture of a human colon carcinoma) and MEL-28 (monolayer culture of a human melanoma).
P-388 cell were seeded into 16 mm wells at 1×10^4 cells per well in 1 ml aliquots of MEM 5FCS containing the indicated concentration of drug. A separate set of cultures without drug was seeded as control growth to ensure that cells remained in exponential phase of growth. All determinations were carried out in duplicate.

Assay [3] relates to MEL-28 (monolayer culture of a human melanoma). Briefly: Cytotoxic activity screening, MEL-28 cells. Particulars: three days of incubation, Crystal Violet; for IC50: Homo sapiens, SK-MEL-28, 72 h, approximate IC50. Here is the method: as §1, §3
A-549, HT-29 and MEL-28 were seeded into 16 mm wells at 2×10^4 cells per well in 1 ml aliquots of MEM 10FCS containing the indicated concentration of drug. A separate set of cultures without drug was seeded as control growth to ensure that cells remained in exponential phase of growth. All determinations were carried out in duplicate. After three days of incubation at 37° C., 10% CO2 in a 98% humid atmosphere, the wells were stained with 0.1% Crystal Violet. An approximately IC50 was determined by comparing the growth in wells with drug to the growth in wells control.

Assay [4] deals with A-549 (monolayer culture of a human lung carcinoma). Briefly: Cytotoxic activity screening, A-549 cells. To be noted: three days of incubation, Crystal Violet; for IC50: Homo sapiens, A549, 72 h, approximate IC50. Here is the method:
as §1, §2

A further assay relates to DU-145. The experiment in a line: Cytotoxic activity screening, DU-145 cells. Particulars: for IC50: Homo sapiens, DU-145, DU-145 cells. As for the experimental part: [The source words this procedure for another cell line and reports this cell line under the same test.] as §1, §3
Examples of biological activities of the compounds described in the present application are in Table IV (IC50 (ng/mL)) on the following pages.

Where [5] appears, read: approximate IC50, listed as 18a*.

≈ marks a conversion by molar mass, not a printed value.

By IC50 is commonly meant the point on the concentration scale where inhibition reaches its midpoint. A lower IC50 goes with higher potency. With `COc1c(C)cc2c(c1O)[C@@H]1C3[C@@H]4SC[C@H](NC(=O)C(F)(F)F)C(=O)OC[C@@H](c5c6c(c(C)c(OC(C)=O)c54)OCO6)N3[C@@H](C#N)[C@H](C2)N1C` (stereo partly shown) [Compound 3b], the IC50 (in assay [1]; in assay [2]; in assay [3]; in assay [4]; in the assay with DU-145) was 1 ng/mL (≈ 1.39 nM) in each case.
Consider `COc1c(C)cc2c(c1O)[C@@H]1C3[C@@H]4SC[C@@H](NC(C)=O)C(=O)OC[C@@H](c5c6c(c(C)c(OC(C)=O)c54)OCO6)N3[C@@H](C#N)[C@H](C2)N1C` (stereo partly shown) [Compound 3a], for which the IC50 (in assay [1]; in assay [2]; in assay [3]; in assay [4]; in the assay on DU-145) was 0.5 ng/mL (≈ 0.752 nM) throughout.
As to `CCCC(=O)O[C@H]1CS[C@@H]2c3c(OC(C)=O)c(C)c4c(c3[C@H](COC1=O)N1C2[C@H]2c3c(cc(C)c(OC)c3O)C[C@@H]([C@@H]1O)N2C)OCO4` (stereo partly shown) [Compound 21c], the IC50 (in assay [1]; in assay [2]; in assay [3]; in assay [4]; in the assay with DU-145) was 1 ng/mL (≈ 1.46 nM) each time.
Take `COc1c(C)cc2c(c1O)[C@@H]1C3[C@@H]4SC[C@H](O)C(=O)OC[C@@H](c5c6c(c(C)c(OC(C)=O)c54)OCO6)N3[C@@H](O)[C@H](C2)N1C` (stereo partly shown) [Compound 19]: the IC50 (in assay [1]; in assay [2]; in assay [3]; in assay [4]; in the assay on DU-145) was 1 ng/mL (≈ 1.63 nM) in each case.
Turning to `COc1c(C)cc2c(c1O)[C@@H]1C3[C@@H]4SC[C@H](NC(=O)CCCCC5SCC6NC(=O)NC65)C(=O)OC[C@@H](c5c6c(c(C)c(OC(C)=O)c54)OCO6)N3[C@@H](C#N)[C@H](C2)N1C` (stereo partly shown) [Compound 3k], the IC50 in assay [1] turned out to be 5 ng/mL (≈ 5.89 nM); in assay [2], 10 ng/mL (≈ 11.8 nM); in assay [3], 5 ng/mL (≈ 5.89 nM); in assay [4] it was 10 ng/mL (≈ 11.8 nM); with DU-145, 5 ng/mL (≈ 5.89 nM).
As for `CCCCCCCC(=O)N[C@H]1CS[C@@H]2c3c(OC(C)=O)c(C)c4c(c3[C@H](COC1=O)N1C2[C@H]2c3c(cc(C)c(OC)c3O)C[C@@H]([C@@H]1C#N)N2C)OCO4` (stereo partly shown) [Compound 3e], the IC50 (in assay [1]; in assay [2]; in assay [3]; in assay [4]; in the assay with DU-145) was 1 ng/mL (≈ 1.34 nM) throughout.
With `CCCCCCCC(=O)N[C@H]1CS[C@@H]2c3c(OC(C)=O)c(C)c4c(c3[C@H](COC1=O)N1C2[C@H]2c3c(cc(C)c(OC)c3O)C[C@@H]([C@@H]1O)N2C)OCO4` (stereo partly shown) [Compound 4e], the 50% inhibitory concentration (IC50) (in assay [1]; in assay [2]; in assay [3]; in assay [4]; with DU-145) was 1 ng/mL (≈ 1.35 nM) each time.
Consider `COc1c(C)cc2c(c1O)[C@@H]1C3[C@@H]4SC[C@H](OS(C)(=O)=O)C(=O)OC[C@@H](c5c6c(c(C)c(OC(C)=O)c54)OCO6)N3[C@@H](O)[C@H](C2)N1C` (stereo partly shown) [Compound 21ll], for which the IC50 (in assay [1]; in assay [2]; in assay [3]; in assay [4]; with DU-145) was 1 ng/mL (≈ 1.44 nM) each time.
Take `COc1c(C)cc2c(c1O)[C@@H]1C3[C@@H]4SC[C@@H](NC(C)=O)C(=O)OC[C@@H](c5c6c(c(C)c(OC(C)=O)c54)OCO6)N3[C@@H](O)[C@H](C2)N1C` (stereo partly shown) [Compound 4a]: the IC50 in assay [1] is 0.1 ng/mL (≈ 0.153 nM); in assay [2] it was 0.1 ng/mL (≈ 0.153 nM); in assay [3], 0.5 ng/mL (≈ 0.763 nM); in assay [4] it was 0.5 ng/mL (≈ 0.763 nM); in the assay with DU-145 it was 0.1 ng/mL (≈ 0.153 nM).
For `COc1c(C)cc2c(c1O)[C@@H]1C3[C@@H]4SC[C@H](NC(=O)CCC(=O)O)C(=O)OC[C@@H](c5c6c(c(C)c(OC(C)=O)c54)OCO6)N3[C@@H](C#N)[C@H](C2)N1C` (stereo partly shown) [Compound 3l], the IC50 (in assay [1]; in assay [2]; in assay [3]; in assay [4]; in the assay with DU-145) was 100 ng/mL (≈ 138 nM) each time.
Turning to `COc1c(C)cc2c(c1O)[C@@H]1C3[C@@H]4SC[C@H](NC(=O)C(C)NC(C)=O)C(=O)OC[C@@H](c5c6c(c(C)c(OC(C)=O)c54)OCO6)N3[C@@H](C#N)[C@H](C2)N1C` (stereo partly shown) [Compound 3w], the IC50 (in assay [1]; in assay [2]; in assay [3]; in assay [4]; in the assay with DU-145) was 1 ng/mL (≈ 1.36 nM) throughout.
In the case of `COc1c(C)cc2c(c1O)[C@@H]1C3[C@@H]4SC[C@H](O)C(=O)OC[C@@H](c5c6c(c(C)c(OC(C)=O)c54)OCO6)N3[C@@H](C#N)[C@H](C2)N1C` (stereo partly shown) [Compound 15], the IC50 (in assay [1]; in assay [2]; in assay [3]; in assay [4]; with DU-145) was 5 ng/mL (≈ 8.02 nM) each time.
`CCCC(=O)N[C@H]1CS[C@@H]2c3c(OC(C)=O)c(C)c4c(c3[C@H](COC1=O)N1C2[C@H]2c3c(cc(C)c(OC)c3O)C[C@@H]([C@@H]1O)N2C)OCO4` (stereo partly shown) [Compound 4c]: the IC50 (in assay [1]; in assay [2]; in assay [3]; in assay [4]; in the assay with DU-145) was 0.1 ng/mL (≈ 0.146 nM) in each case.
As to `COc1c(C)cc2c(c1O)[C@@H]1C3[C@@H]4SC[C@@H](OC(C)=O)C(=O)OC[C@@H](c5c6c(c(C)c(OC(C)=O)c54)OCO6)N3[C@@H](C#N)[C@H](C2)N1C` (stereo partly shown) [Compound 18a*], the “IC50 HT-29” value in assay [1] (setting [5]) is 1.0 ng/mL (≈ 1.5 nM). For the same compound, in assay [2] (listed as 18a*), the “IC50 P-388” value turned out to be 1.0 ng/mL (≈ 1.5 nM). The “IC50 MEL-28” value in assay [3] (setting [5]) was found to be 1.0 ng/mL (≈ 1.5 nM). In addition, the “IC50 A-549” value in assay [4] (setting [5]) amounted to 1.0 ng/mL (≈ 1.5 nM). For the same compound, the “IC50 DU-145” value in the assay with DU-145 (DU-145 cells, listed as 18a*) stood at 1.0 ng/mL (≈ 1.5 nM).
As to `COc1c(C)cc2c(c1O)[C@@H]1C3[C@@H]4SCC(NC(=O)C(N)C(C)C)C(=O)OC[C@@H](c5c6c(c(C)c(OC(C)=O)c54)OCO6)N3[C@@H](O)[C@H](C2)N1C` (stereo partly shown) [Compound 4p], the IC50 (in assay [1]; in assay [2]; in assay [3]; in assay [4]; with DU-145) was 0.5 ng/mL (≈ 0.701 nM) each time.
For the compound `CCCCCCCC(=O)O[C@H]1CS[C@@H]2c3c(OC(C)=O)c(C)c4c(c3[C@H](COC1=O)N1C2[C@H]2c3c(cc(C)c(OC)c3O)C[C@@H]([C@@H]1C#N)N2C)OCO4` (stereo partly shown) [Compound 17e], the IC50 (in assay [1]; in assay [2]; in assay [3]; in assay [4]; in the assay on DU-145) was 1 ng/mL (≈ 1.33 nM) throughout.
On to `CCCCCCCCCCCCCCCC(=O)O[C@H]1CS[C@@H]2c3c(OC(C)=O)c(C)c4c(c3[C@H](COC1=O)N1C2[C@H]2c3c(cc(C)c(OC)c3O)C[C@@H]([C@@H]1C#N)N2C)OCO4` (stereo partly shown) [Compound 17f], for which the IC50 (in assay [1]; in assay [2]; in assay [3]; in assay [4]; in the assay with DU-145) was greater than 1000 ng/mL in each case.
Turning to `COc1c(C)cc2c(c1O)[C@@H]1C3[C@@H]4SC[C@H](NC(=O)C(NC(=O)C(C)NC(=O)/C=C/c5ccccc5)C(C)C)C(=O)OC[C@@H](c5c6c(c(C)c(OC(C)=O)c54)OCO6)N3[C@@H](C#N)[C@H](C2)N1C` (stereo partly shown) [Compound 3u], the IC50 in assay [1] was determined as 1 ng/mL (≈ 1.08 nM); in assay [2], 5 ng/mL (≈ 5.42 nM); in assay [3], 1 ng/mL (≈ 1.08 nM); in assay [4], 5 ng/mL (≈ 5.42 nM); in the assay with DU-145 it was 1 ng/mL (≈ 1.08 nM).
As to `COc1c(C)cc2c(c1O)[C@@H]1C3[C@@H]4SC[C@H](NC(=O)/C=C/c5ccccc5)C(=O)OC[C@@H](c5c6c(c(C)c(OC(C)=O)c54)OCO6)N3[C@@H](C#N)[C@H](C2)N1C` (stereo partly shown) [Compound 3h], the IC50 (in assay [1]; in assay [2]; in assay [3]; in assay [4]; in the assay on DU-145) was 0.5 ng/mL (≈ 0.664 nM) each time.
Take `COc1c(C)cc2c(c1O)[C@@H]1C3[C@@H]4SC[C@H](NC(=O)CC(C)C)C(=O)OC[C@@H](c5c6c(c(C)c(OC(C)=O)c54)OCO6)N3[C@@H](C#N)[C@H](C2)N1C` (stereo partly shown) [Compound 3d]: the IC50 (in assay [1]; in assay [2]; in assay [3]; in assay [4]; in the assay on DU-145) was 0.1 ng/mL (≈ 0.141 nM) each time.
